US8093274B2, “Inhibitors of protein prenyltransferases” (The Regents of the University of California, priority 2006, dated 2012)
Where two headings read alike, the source gives them in different places.

Key:
[1] = biological target: GGTase I (substrate RhoA) (Homo sapiens, UniProt P49354+P53609); assay: GGTase I filter-binding assay with RhoA as substrate; type: biochemical; settings: for activity at 50 µM: read-out: % activity of GGTase I for protein RhoA in the presence of the compound; for IC50: FIG. 15, read-out: IC50 for the inhibition of GGTase I using RhoA as a substrate
Experimental: (§1) The pilot library was screened for inhibitors of protein geranylgeranyltransferase type I. Protein prenyltransferase assays were carried out by using filter binding. Two different substrates, RhoA and K-Ras4B, were used for the assay. RhoA ends with the CaaL motif and is an exclusive substrate for GGTase I, while K-Ras4B ends with the CaaX motif and is modified by both GGTase I and FTase.
(§2) The % activity of GGTase I was determined as follows: a working solution that contained each compound in DMSO at the concentration of 1 mM was prepared. The working solution was added to GGTase I reaction mixture so that the final concentration of the compound is 50 μM. GGTase I activity was assayed by incubating [^3H]GGPP with K-Ras4B or RhoA protein in the presence of GGTase I and examining radioactivity incorporated into the substrate protein by spotting onto a filter paper. After washing with TCA, ethanol and acetone, the radioactivity retained on the filter was determined by the use of a scintillation counter. GGTase I activity in the presence of DMSO was taken as a 100% value and the activity in the presence of the compound was shown as percent activity compared with the 100% value. […] For 6-aryl-4-mercapto-N-sulfonyl-piperidine-3-carboxylic acid 11 the 4-mercapto substituent appeared critical to endowing GGTase inhibitory activity. […] 4-Chlorobenzylthio substituent was the next best; 12 compounds out of 21 containing the 4-chlorobenzylthio moiety were active. 4-Benzylthio substituent was also good; 7 piperidines out of 21 bearing 4-benzylthio group were active. […] 19 imines (C15>C12=C41>C40>C01=C11>C05=C10=C30=C35=C37=C38>C02, C03, C04, C06, C39=C43) out of 21 appeared in the GGTIs. […] This corresponds to 47 6-aryl-4-mercapto-N-sulfonyl-piperidine-3-carboxylic acids out of 357 compounds.
(§3) A collection of 138 heterocycles was screened for their ability to inhibit the activity of human GGTase-I to geranylgeranylate K-Ras4B or RhoA. Purified GGTase-1 was incubated with its substrate protein K-Ras4B or RhoA, [^3H]GGPP, and the 138 compounds. After 30 min, the degree of incorporation of tritiated geranylgeranyl groups was measured using a scintillation counter.
(§4) The GGTase-I assay was carried out using RhoA as a substrate protein, GGTase-I (JENA Bioscience) and [3H]geranylgeranyl pyrophosphate. Incubation was for 30 min at 37 C. GGTase-H (or RabGGTase) assay was carried out using YPT1 as a substrate protein, GGTase-H (Calbiochem, San Diego, Calif.) plus REP1 (Calbiochem) and [3H]geranylgeranyl pyrophosphate. Incubation was for 30 min at 37 C. FIGS. 20D-20F show the three dimensional structure of GGTase I (D), FTsse (E) and GGTase II (F) which can be obtained from X-ray diffraction studies of protein crystals.

[2] = biological target: GGTase I (substrate K-Ras4B) (Homo sapiens, UniProt P49354+P53609); assay: GGTase I filter-binding assay with K-Ras4B as substrate; type: biochemical; settings: read-out: % activity of GGTase I for protein K-Ras4B in the presence of the compound
Experimental: as §1, §2, §3

K562 cells = assay: Proliferation of K562 cells, cell counting kit-8; type: cell-based, human; settings: 72 hours; relative to DMSO control
Experimental: K562 cells are a cell line of human erythroleukemia cells. The K562 cells were treated with P3-E5, P5-H6 or GGTI-298 (a known GGTI compound illustrated in FIG. 27) for 72 hours and then cell number was counted using cell counting kit-8 (Dojindo, Gaithersburg, Md.). Cell viability relative to the DMSO control and the known GGTI compound is plotted in FIG. 23.

GGTase-I = GGTase-I inhibition kinetics, double reciprocal plots; type: biochemical; settings: varying GGPP with fixed RhoA
Experimental: as §4
The graphs in FIG. 21 show double reciprocal plots obtained from substrate velocity curves for the inhibition of GGTase-I by P3-E5 (left) and P5-H6 (right). The upper figures show varying GGPP concentrations with a fixed RhoA protein concentration were used. The lower figures show varying RhoA protein concentrations with a fixed GGPP concentration was used. The following scale was used to prepare the graphs: Y-axis: 1/v, fmol/min. X-axis: 1/s, mM.

[3] = test system: geranylgeranylated Rheb (Rheb-CSVL) in HEK 293 cells; assay: Geranylgeranylation of Rheb-CVSL in HEK 293 cells, mobility shift on Western blot; type: cell-based, human; settings: HEK 293 cells; FIG. 33
Source text: Finally, we investigated in vivo effects of compounds 22 (also known as UC-22) and 23 (also known as UC-23). Human embryonic kidney (HEK) 293 cells were transfected with the Rheb-CSVL construct that expresses the geranylgeranylated form of the Rheb protein. Inhibition of the geranylgeranylation of this protein can be detected from a shift in its mobility on SDS polyacrylamide gel; the unprocessed form appears as a slowly migrating band.
Human embryonic kidney (HEK) 293 cells expressing Myc-HA tagged-Rheb-CVSL (upper) or Myc-HA tagged-Rheb-WT (lower) were treated with P3-E5 for 48 hours and then lysed. The cell lysates were run on a SDS polyacrylamide gel and immunoblotted using anti-Myc or anti-Actin antibody. The descriptors P and U indicate processed and unprocessed Rheb, respectively.
Human embryonic kidney (HEK) 293 cells expressing Myc-HA tagged-Rheb-CVSL (upper) or Myc-HA tagged-Rheb-WT (lower) were treated with mP5-H6a (also referred to as mP5-H6), or GGTI-298 for 48 hours and then lysed. Lysates were run on a SDS polyacrylamide gel and immunoblotted with anti-Myc or anti-Actin antibody.

[4] = biological target: T1, protein farnesyltransferase (FTase) (Rattus norvegicus, UniProt Q02293+Q04631); assay: Protein farnesyltransferase assay with K-Ras4B and [3H]FPP; type: biochemical; settings: for inhibition of FTase activity: FIG. 16, concentration increased to 100 μM
T1 construct: purchased JENA Bioscience
Source text: To further characterize the pilot library, inhibitors of protein farnesyltransferase were identified. This was accomplished by using K-Ras4B as a substrate protein, tritiated farnesylpyrophosphate ([^3H]FPP) and protein farnesyltransferase. See Finegold, A. A., Johnson, D. I., Farnsworth, C. C., Gelb, M. H., Judd, S. R., Glomset, J. A. and Tamanoi, F. (1991) Protein geranylgeranyltransferase of Saccharomyces cerevisiae is specific for Cys-Xaa-Xaa-Leu motif and requires the CDC43 gene product but not the DPRI gene product. Proc. Natl. Acad. Sci. USA 88, 4448-4452. […] On the other hand, the structure of the compounds P1-F11, P2-B7 and P2-E9 resemble those of GGTIs. The FTI P1-F11 resembles the GGTI P1-F10, while the FTI P2-B7 resembles the GGTI P2-C10. The FTI P2-E9 is similar to the GGTI P2-G3. Similarity of some GGTI and FTI compounds may point to common structural features between the two closely related enzymes. As described before, FTase and GGTase I have similar three-dimensional structures and a shared alpha subunit. On the other hand, FTase specific inhibitors may recognize a region(s) that is different between the two enzymes.
Varying concentrations of the two compounds were added to each enzyme reaction. The FTase (protein farnesyltransferase) assay was carried out using K-Ras4B as a substrate protein, FTase (JENA Bioscience, San Diego, Calif.) and […] pyrophosphate. Incubation was for 30 min at 37 C.

GGTase I = GGTase I (Homo sapiens, UniProt P49354+P53609); assay: GGTase I assay, substrate not specified or K-Ras4B and RhoA compared; type: biochemical; settings: for inhibition of GGTase I: FIG. 16; for substrate preference of GGTase I inhibition (RhoA vs K-Ras4B), known GGTIs: FIG. 17; for GGTI activity in screen of 138 heterocycles: K-Ras4B or RhoA substrate, 30 min
Experimental: as §1, §2, §3

[5] = 50 μM compound, DMSO = 100%, smaller numbers indicate better inhibition, second number of pair
[6] = 50 μM compound, DMSO = 100%, smaller numbers indicate better inhibition, first number of pair

Cc1ccc(S(=O)(=O)N2[C@@H](c3cccc(F)c3)C(C(=O)O)=C[C@H]2C(C)(C)C)cc1
activity at 50 µM [1]: 9.1%
activity at 50 µM [2]: 23.7%

Cc1ccccc1S(=O)(=O)N1[C@@H](c2ccc(Cl)cc2)C(C(=O)O)=C[C@H]1CC1CCCC1
activity at 50 µM [1]: 9.1%
activity at 50 µM [2]: 23.7%

Cc1ccc(S(=O)(=O)N2C(c3ccc(Cl)c(Cl)c3)CC=C(C(=O)O)[C@@H]2c2cccc(Br)c2)cc1 (stereo partly shown)
activity at 50 µM [1]: 3.2%
activity at 50 µM [2]: 8.6%

Cc1ccc(S(=O)(=O)N2C(c3ccc(Cl)c(Cl)c3)CC=C(C(=O)O)[C@@H]2c2cccc(Cl)c2)cc1 (stereo partly shown)
activity at 50 µM [1]: 4.5%
activity at 50 µM [2]: 10.7%

Cc1ccccc1S(=O)(=O)N1C(c2ccc(Cl)cc2)CC=C(C(=O)O)[C@@H]1c1ccccc1 (stereo partly shown)
activity at 50 µM [1]: 5.8%
activity at 50 µM [2]: 13.4%

Cc1ccc(S(=O)(=O)N2C(c3ccc(Cl)c(Cl)c3)CC=C(C(=O)O)[C@@H]2c2ccc(Br)cc2)cc1 (stereo partly shown)
activity at 50 µM [1]: 11.3%
activity at 50 µM [2]: 18.7%

C=CCS[C@H]1[C@@H](C(=O)O)[C@H](c2cccc(F)c2)N(S(=O)(=O)c2ccc(C)cc2)[C@@H]1CC1CCCC1
activity at 50 µM [1, 5]: 9.7%
activity at 50 µM [2, 6]: 30.4%

CCC[C@@H]1[C@@H](SCCC(=O)OC(C)(C)C)[C@@H](C(=O)O)[C@H](c2cccc(F)c2)N1S(=O)(=O)c1ccc(C)cc1
activity at 50 µM [1, 5]: 7.8%
activity at 50 µM [2, 6]: 20.2%

CCCC[C@@H]1[C@@H](Sc2ccc(OC)cc2)[C@@H](C(=O)O)[C@H](c2cccc(F)c2)N1S(=O)(=O)c1ccc(C)cc1
activity at 50 µM [1, 5]: 3.5%
activity at 50 µM [2, 6]: 27.4%

Cc1ccc(S(=O)(=O)N2[C@H](CC3CCCC3)[C@@H](SCCC(=O)OC(C)(C)C)[C@@H](C(=O)O)[C@@H]2c2cccc(F)c2)cc1
activity at 50 µM [1, 5]: 8.2%
activity at 50 µM [2, 6]: 31.9%

CCCCCC[C@@H]1[C@@H](Sc2ccc(C)cc2)[C@@H](C(=O)O)[C@H](c2ccc(Cl)c(Cl)c2)N1S(=O)(=O)c1ccc(C)cc1
activity at 50 µM [1, 5]: 9.2%
activity at 50 µM [2, 6]: 21.3%

CCCCCC[C@@H]1[C@@H](Sc2ccc(C)cc2)[C@@H](C(=O)O)[C@H](c2ccc(Cl)cc2)N1S(=O)(=O)c1ccccc1
activity at 50 µM [1, 5]: 7.5%
activity at 50 µM [2, 6]: 15%

CC(C)CCS[C@H]1[C@@H](C(=O)O)[C@H](c2ccc(Cl)cc2)N(S(=O)(=O)c2ccccc2)[C@@H]1C(C)C
activity at 50 µM [1, 5]: 5.9%
activity at 50 µM [2, 6]: 28.1%

CCCCCC[C@@H]1[C@@H](SC2CCCC2)[C@@H](C(=O)O)[C@H](c2ccc(C#N)cc2)N1S(=O)(=O)c1ccc(C)cc1
activity at 50 µM [1, 5]: 7.4%
activity at 50 µM [2, 6]: 20.1%

Cc1ccccc1S(=O)(=O)N1[C@@H](c2ccc(Cl)cc2)C(C(=O)O)=C[C@H]1C(C)(C)C (relative stereo) [P5-H6]
activity at 50 µM [1, 5]: 5.3%
specificity of GGTase I inhibition ([1]; compared with FTase and GGTase-II, varying concentrations, FIGS. 20A-20C): specifically inhibit GGTase I
activity at 50 µM [2, 6]: 13.3%
inhibition of proliferation of K562 cells (K562 cells): inhibit proliferation of K562 cells
mode of inhibition of GGTase-I (GGTase-I): compete with a substrate protein but do not compete with GGPP
inhibition of geranylgeranylation of Rheb-CSVL within the cell [3]: inhibit geranylgeranylation within the cell
inhibition of FTase ([4]; at concentrations at which they inhibited GGTase-I by more than 90%): did not inhibit FTase

Cn1cncc1CN1C[C@@H](Cc2ccccc2)N(S(=O)(=O)c2cccs2)Cc2cc(C#N)ccc21 [BMS225975, reference compound]
inhibition of GGTase I (GGTase I): does not inhibit GGTase I
inhibition of FTase activity [4]: inhibits FTase

COC(=O)[C@H](CC(C)C)NC(=O)c1ccc(NC[C@@H](N)CS)cc1-c1cccc2ccccc12 [GGTI-298, reference compound]
IC50 [1]: 1.6 µM
inhibition of GGTase I (GGTase I): inhibits GGTase I
substrate preference of GGTase I inhibition (RhoA vs K-Ras4B), known GGTIs (GGTase I): inhibit RhoA-driven GGTase I activity slightly better than K-Ras4B-driven GGTase I activity
inhibition of FTase activity [4]: little inhibition was observed with FTase

COC(=O)C(CC(C)C)NC(=O)c1ccc(NCc2cnc[nH]2)cc1-c1ccccc1C (stereo not shown) [GGTI-2166, reference compound]
IC50 [1]: 0.5 µM
substrate preference of GGTase I inhibition (RhoA vs K-Ras4B), known GGTIs (GGTase I): inhibit RhoA-driven GGTase I activity slightly better than K-Ras4B-driven GGTase I activity

O=C(O)C1=CCC(c2ccc(Cl)cc2)N(S(=O)(=O)c2ccc(Cl)cc2)[C@H]1c1cccc(Cl)c1 (stereo partly shown) [P3-D9]
activity at 50 µM [1, 5]: 26.7%
IC50 [1]: 5 µM
activity at 50 µM [2, 6]: 33.1%
inhibition of FTase activity [4]: no inhibition of FTase activity was observed

CC[C@@H]1C=C(C(=O)O)[C@H](c2ccc(F)cc2)N1S(=O)(=O)c1ccc(C)cc1 [compound 1]
GGTI activity in screen of 138 heterocycles (GGTase I): identified as GGTIs

Cc1ccc(S(=O)(=O)N2[C@@H](c3ccccc3)C(C(=O)O)=CC[C@H]2c2ccc(F)cc2)cc1 [compound 2]
GGTI activity in screen of 138 heterocycles (GGTase I): identified as GGTIs
